# According to patent publication US20110059948A1, “QUINOLINE, NAPHTHALENE AND CONFORMATIONALLY CONSTRAINED QUINOLINE OR NAPHTHALENE DERIVATIVES AS ANTI-MYCOBACTERIAL AGENTS” (priority 2008, published 2011):
# What was measured:
# [1] = test system: clinical isolate MDR (BTB 08-072); experiment: microbe, parasite or virus in culture; format: cell-based, Mycobacterium tuberculosis; settings: for MIC against MDR-TB (BTB 08-072), strain resistant to all front line drugs: agar dilution, Middlebrook 7H10; for MIC: Mycobacterium tuberculosis, read-out: MIC against MDR-TB (BTB 08-072), strain resistant to all front line drugs
# [2] = test system: clinical isolates resistant to one or more standard antitubercular drugs (MDR-TB strains); experiment: microbe, parasite or virus in culture; format: cell-based, Mycobacterium tuberculosis; settings: for MIC M. tuberculosis Resistant (n = 10): clinical isolates, n = 10 strains tested
SMILES,"MIC against MDR-TB (BTB 08-072), strain resistant to all front line drugs [1] [µg/mL]",MIC M. tuberculosis Resistant (n = 10) [2] [µg/mL],MIC [1] [µg/mL],"MIC ([2]; Mycobacterium tuberculosis, read-out: MIC M. tuberculosis Resistant (n = 10)) [µg/mL]"
CC(c1cc(F)ccc1Oc1nc2ccc(-n3cc(-c4ccccc4)nn3)cc2cc1Cc1ccccc1)n1ccnc1 (centres unmarked) [Example 23],>6.25,<6.25,–,–
COc1cccc(NC(=O)Nc2ccc3nc(Oc4ccc(F)cc4C(C)O)c(Cc4ccccc4)cc3c2)c1 (centres unmarked) [Example 26],>4.0,<4.0,–,–
CC(O)c1cc(F)ccc1Oc1nc2ccc(NC(=O)Nc3cccc([N+](=O)[O-])c3)cc2cc1Cc1ccccc1 (centres unmarked) [Example 31],>6.25,<6.25,–,–
ON=C1c2ccccc2-c2c1c(N1CCN(c3ccccn3)CC1)nc1ccc(Br)cc21 [Example 134],>6.25,<6.25,–,–
"NNC(=O)c1ccncc1 [Isoniazid, reference compound]",–,–,> 16,> 16
"CO[C@H]1/C=C/O[C@@]2(C)Oc3c(C)c(O)c4c(O)c(c(/C=N/N5CCN(C)CC5)c(O)c4c3C2=O)NC(=O)/C(C)=C\C=C\[C@H](C)[C@H](O)[C@@H](C)[C@@H](O)[C@@H](C)[C@H](OC(C)=O)[C@@H]1C [Refampin, Rifampicin, reference compound]",–,–,> 16,–
